Where two headings read alike, the source gives them in different places.
Tests used:
mushroom tyrosinase [1] = test: Mushroom tyrosinase activity assay (L-DOPA to dopachrome); assay type: biochemical; settings: L-DOPA substrate, 37 °C, pH 6.8, mean ± SEM, n = 3
Experimental: Enzymatic conversion of L-DOPA into dopachrome by mushroom tyrosinase (Sigma Aldrich, St. Louis, MO) was detected using spectrophotometric evaluation. The mushroom tyrosinase activity assay was performed according to a previous report. In this study, the enzyme assay was conducted at 37 °C, which is in the optimal temperature range of tyrosinase, as per previous studies[20]^,[21]. The enzyme, substrate, and inhibitor(s) were dissolved in potassium phosphate buffer at a pH of 6.8, which is in the optimal pH range of tyrosinase. Note that, the solvent for preparing the stock solution of inhibitors was dimethyl sulphoxide. […] Then, the substrate (10 μL of 50 mM of L-DOPA) was introduced to the samples, followed by incubation at 37 °C for 15 min in darkness. The absorbance was later measured at 450 nm. The experiment was conducted in triplicate. IC50 values were determined through dose–response curve analysis using GraphPad Prism 10.2.2 software (La Jolla, CA).
Data are presented as the mean ± standard error of the mean (SEM) from three independent experiments (n = 3). Statistical comparisons between two groups were conducted using the t-test, with a p value of <0.05 considered to be statistically significant.

mushroom tyrosinase [2] = settings: read-out: IC50 (previously reported tyrosinase inhibitor); cited from earlier work
EGFR = test system: EGFR; parameters: method as in PMID 35664590, PMID 25019480; settings: cited from earlier work

Row | IC50 (mushroom tyrosinase [1]) | SMILES | IC50 (mushroom tyrosinase [2]) | also measured
1 | 138 ± 6.07 µM | O=C1C(Cl)=C(Nc2ccc(Br)cc2)C(=O)c2ccccc21 [compound 5] |  | 
2 |  | C[C@@H]1[C@H](O)[C@@H](C)/C=C/C=C/C=C/C=C/C=C/C=C/C=C/[C@H](O[C@@H]2O[C@H](C)[C@@H](O)[C@H](N)[C@@H]2O)C[C@@H]2O[C@](O)(C[C@@H](O)C[C@@H](O)[C@H](O)CC[C@@H](O)C[C@@H](O)CC(=O)O[C@H]1C)C[C@H](O)[C@H]2C(=O)O [amphotericin B] | 263 ± 11.8 µM | 
3 | 112 ± 9.18 µM | CC(=O)c1cccc(NC2=C(Cl)C(=O)c3ccccc3C2=O)c1 [compound 10] |  | 
4 |  | O=c1c(O)c(-c2ccc(O)cc2O)oc2cc(O)cc(O)c12 [morin] | 2320 µM | 
5 |  | Cc1ccc(NC2=C(Cl)C(=O)c3ccccc3C2=O)cc1 [compound 3] |  | EGFR inhibitory potency relative to erlotinib (EGFR): fourfold higher potency than erlotinib
6 | 151 ± 4.39 µM | O=C1C=C(Nc2ccccc2)C(=O)c2ccccc21 [compound 1] |  | 
7 |  | CC1(C)C=Cc2c(O)ccc(C3=Cc4ccc(O)cc4OC3)c2O1 [glabrene] | 7600 µM | 

— paper PMC11141316, “Anilino-1,4-naphthoquinones as potent mushroom tyrosinase inhibitors: in vitro and in silico studies” (Journal of Enzyme Inhibition and Medicinal Chemistry, 2024)
